Data: patent US7101980B2, “Derivatives, conjugates, and antibodies for detecting ecstasy-class analytes” (Roche Diagnostics Operations, Inc., priority 2002, dated 2006)

Experiments:
Type in all cases: binding, mouse
antibody NEAMP 1.3 = experiment: Cross-reactivity of NEAMP 1.3 with various drugs generated in an ELISA assay; details: antibody NEAMP 1.3 (immunogen 26, Q=KLH), MDEA as standard = 100
Protocol: Antibodies elicited by the immunogen 12, e.g., wherein T is KLH, show good response and specificity to ecstasy-class drugs. Furthermore, these antibodies show little or no cross-reactivity to related drugs. By determining the drug concentration that results in a 50% reduction in binding (ED50) of a standard, methamphetamine, dividing by the ED50 of each other drug, and then multiplying the result by 100, the percent cross-reactivity was calculated.
Tables 2, 3, and 4 show cross-reactivity data for the antibodies NEAMP 1.3, NEAMP 48.2, and NEAMP 62.1, which were generated in response to immunogen 26 of FIG. 2 wherein Q is KLH. By the procedure described above, using MDEA as a standard, the percent cross-reactivities shown in Tables 2, 3, and 4 were calculated.
Microplates were coated with 100 μL methamphetamine-BSA conjugate 28 (for screening for NEAMP 1.3) or 100 μL of MDEA-BSA conjugate 36 (for screening for NEAMP 48.2 and NEAMP 62.1), and separate microplates were coated with 100 μL N-ethylamphetamine-BSA 26 (Q=BSA, 26b) at 1 μg/mL in 0.1 M carbonate buffer, pH 9.5, for 1 hour at 37° C. (humidified). The plates were then emptied and filled with a post-coat solution containing Tris buffer, 1% gelatin hydrolysate, 2% sucrose, and 0.17% TWEEN 20. (All reagents were from Sigma Chemical Co.) The plates were incubated for an additional 1 hour at 37° C. (humidified), after which they were washed with phosphate-buffered saline containing 0.1% TWEEN 20. The plates were then filled with a 2% sucrose solution in 0.15 M Tris, pH 7.2–7.4, briefly, then emptied and allowed to air-dry at room temperature. When dried, the plates were packed in ZIPLOC bags containing several desiccant pillows, sealed, and stored at 4° C. until use.
When the growing clones were judged ready for testing, 25 μL of supernatant from the wells were taken and transferred to 96-well flexible plates. Culture medium was added to each well to provide a 1:10 dilution of the media sample. One hundred microliters of the diluted sample were transferred to each of the coated plates above. The plates were incubated covered for 1 hour at 37° C., then washed with PBS-TWEEN. The wells were then filled with 100 μL of goat anti-mouse IgG-HRP conjugate (Zymed Labs) diluted in PBS-TWEEN and the plates re-incubated for 1 hour. The plates were then washed again, and 100 μL of K Blue substrate (Neogen Corp) was added. This was allowed to develop for 5–15 minutes, the reaction being stopped by the addition of 100 μL of 1 N HCl. Color was read by means of a microplate reader at […] and collected by computer for analysis. A criterion for selection was binding to the methamphetamine-BSA conjugate 28 (for selection of NEAMP 1.3) or MDEA-BSA conjugate 36 (for screening for NEAMP 48.2 and NEAMP 62.1). Clones chosen were immediately subcloned and, when ready, retested. Stable subclones were expanded, frozen, and the spent media used to determine specificity using the cross-reactivity assay.
(§1) Supernatants were subjected to serial dilutions and re-tested in the ELISA screen above. The dilution providing for about a 50% reduction from the maximum OD was chosen for proceeding to cross-reactivity testing. This comprised repeating the preceding assay with the antibody at the chosen dilution and in the presence of varying concentrations of drugs.

antibody MDMA 2.1.1 = experiment: Cross-reactivity of antibody MDMA 2.1.1 with various drugs (ELISA cross-reactivity assay); details: antibody MDMA 2.1.1 (elicited by immunogen 12, T=KLH); ED50 of standard / ED50 of drug x 100; MDMA = 100
Protocol: In Table 1, the abbreviation d-AMP represents d-amphetamine, the abbreviation d-MAMP represents d-methamphetamine, the abbreviation l-AMP represents l-amphetamine, the abbreviation l-MAMP represents l-methamphetamine, and the abbreviation MDPA represents 3,4-methylenedioxy-N-propylamphetamine.
Microplates were coated with […] methylenedioxymethamphetamine-BSA conjugate 12 (T=BSA, 12b) at a concentration of 1 mg/mL, and separate microplates were coated with either 100 μL methamphetamine-BSA (MAMP-BSA) 28 at a concentration of 1 mg/mL or with 100 μL of amphetamine-BSA (AMP-BSA) 30 at a concentration of 1 mg/mL.
The plates were incubated covered for 1 hour at 37° C. (humidified). The plates were then emptied and filled with a post-coat solution consisting of Tris buffer, 1% gelatin hydrolysate, 2% sucrose, and 0.17% TWEEN 20. (All reagents were from Sigma Chemical Co.) The plates were incubated covered for an additional 1 hour at 37° C. (humidified), after which they were washed with phosphate-buffered saline containing 0.1% TWEEN 20. The plates were then filled with a 2% sucrose solution in 0.15 M Tris, pH 7.2–7.4, briefly, then emptied and allowed to air dry at room temperature. When dried, the plates were packed in ZIPLOC (Dow Chemical Co.) plastic bags containing several desiccant pillows, sealed, and stored at 4° C. until use.
For the primary screening of the growing clones from the fusion plates, only the MDMA-BSA 12 (T=BSA, 12b) coated plates were used. Fifty microliters of PBS was added to each well, followed by 50 μL of the sample of culture media from wells on the fusion plate, diluted 1:10 in PBS. The plates were incubated covered for 1 hour at 37° C., then washed with PBS-TWEEN (0.1%). The wells were then filled with 100 μL of goat anti-mouse IgG-HRP conjugate (Zymed Labs), diluted in PBS-TWEEN, and the plates re-incubated for 1 hour. The plates were then washed again and 100 μL of K-Blue Substrate (Neogen Corp.) added. This was allowed to develop for 5–15 minutes, the reaction being stopped by the addition of 100 μL of 1 N HCl. Color was read by means of a microplate reader at 450 nm and collected by computer for analysis. […] Cells were subjected to limiting dilution subcloning, and upon appearance of growth, were tested by a secondary screen.
as §1

antibody NEAMP 62.1 = experiment: Cross-reactivity of NEAMP 62.1 with various drugs generated in a KIMS assay (ONLINE DAT II); details: antibody NEAMP 62.1 (immunogen 26, Q=KLH); KIMS immunoassay; MDEA as standard = 100
antibody NEAMP 48.2 = experiment: Cross-reactivity of NEAMP 48.2 with various drugs generated in a KIMS assay (ONLINE DAT II); details: antibody NEAMP 48.2 (immunogen 26, Q=KLH); KIMS immunoassay; MDEA as standard = 100

| SMILES | % Cross-reactivity (antibody NEAMP 1.3) [%] | % Cross-reactivity (antibody MDMA 2.1.1) [%] | % Cross-reactivity (antibody NEAMP 62.1) [%] | % Cross-reactivity (antibody NEAMP 48.2) [%] |
| --- | --- | --- | --- | --- |
| CN[C@@H](C)Cc1ccccc1 [d-MAMP, d-methamphetamine] | 19.7 | 0.65 | 0.5 | – |
| NCCc1ccc(O)cc1 [tyramine] | – | 0 | – | – |
| c1cc2c(cc1[C@H]1OC[C@H]3[C@@H]1CO[C@@H]3c1ccc3c(c1)OCO3)OCO2 [sesamin] | – | 0 | – | – |
| CN[C@@H](C)[C@@H](O)c1ccccc1 [pseudoephedrine] | – | 0 | – | – |
| CCC(N)Cc1ccc2c(c1)OCO2 (centres unmarked) [BDB, 3,4-methylenedioxyphenyl-2-butanamine] | – | 20.5 | 46 | 1 |
| CC(C)(N)Cc1ccccc1 [phentermine] | – | 0 | – | – |
| CCNC(C)Cc1ccccc1 (stereo not drawn) [d-N-ethylamphetamine] | – | – | 11 | 130 |
| CN[C@H](C)Cc1ccccc1 [l-MAMP, l-methamphetamine] | – | 0 | 0.2 | 0.5 |
| C[C@H](N)Cc1ccccc1 [d-AMP, d-amphetamine] | 6.4 | 0 | – | 0 |
| CN[C@@H](C)[C@@H](O)c1ccccc1 [d-pseudoephedrine] | 0.4 | – | 0.1 | 0.06 |
| CNCC(O)c1ccc(O)c(O)c1 (centres unmarked) [adrenaline] | – | 0 | – | – |
| C[C@@H](N)Cc1ccccc1 [l-AMP, l-amphetamine] | 6.6 | 0 | – | – |
| CCCNC(C)Cc1ccc2c(c1)OCO2 (centres unmarked) [MDPA, 3,4-methylenedioxy-N-propylamphetamine] | – | 365 | – | – |
| CNC(C)Cc1ccc2c(c1)OCO2 (centres unmarked) [MDMA, 3,4-methylenedioxy-N-methylamphetamine] | 22.5 | 100 | 4.0 | 5 |
| CC(N)Cc1ccc2c(c1)OCO2 (centres unmarked) [MDA, 3,4-methylenedioxyamphetamine] | – | 60.6 | – | – |
| CCC(Cc1ccc2c(c1)OCO2)NC (centres unmarked) [MBDB, 3,4-methylenedioxyphenyl-N-methylbutanamine] | 3.9 | 26.1 | 13 | 6 |
| CC(N)C(O)c1ccccc1 (centres unmarked) [phenylpropanolamine] | – | 0 | – | – |
| CN[C@@H](C)[C@H](O)c1ccccc1 [ephedrine] | – | 0 | – | – |
| NC[C@H](O)c1ccc(O)c(O)c1 [norepinephrine] | – | 0 | – | – |
| C[C@H]1[C@H](c2ccccc2)OCCN1C [phendimetrazine] | 0.12 | – | 0.1 | 0.04 |
| CCNC(C)Cc1ccc2c(c1)OCO2 (centres unmarked) [MDEA, 3,4-methylenedioxy-N-ethylamphetamine] | 100 | 204 | 100 | 100 |
| CN[C@@H](C)[C@H](O)c1ccccc1 [l-ephedrine] | 1.3 | – | 0.0 | 0 |
